Assay results published in ChEMBL document CHEMBL1153884, “Oligonucleotide-polyamine conjugates: influence of length and position of 2'-attached polyamines on duplex stability and antisense effect” (2009).

Columns and labels:
[1] = Antisense effect in human 607B cells assessed as down-regulation of bcl2 expression at 100 nM after 48 hrs by Western blot analysis relative to control; format: functional
[2] = test system: Nucleic Acid; experiment: Duplex stability of RNA counter strand assessed as melting temperature; format: nucleic-acid assay
[3] = test system: Nucleic Acid; experiment: Duplex stability of DNA counter strand assessed as melting temperature; format: nucleic-acid assay

Row | SMILES | Activity [1] | Tm [2] | Tm [3]
1 | Cc1cn([C@H]2C[C@H](OP(O)(=S)OC[C@H]3O[C@@H](n4ccc(N)nc4=O)[C@H](O)[C@@H]3OP(O)(=S)OC[C@H]3O[C@@H](n4cc(C)c(=O)[nH]c4=O)C[C@@H]3O)[C@@H](COP(O)(=S)O[C@H]3[C@@H](O)[C@H](n4ccc(N)nc4=O)O[C@@H]3COP(O)(=S)O[C@H]3[C@@H](O)[C@H](n4ccc(N)nc4=O)O[C@@H]3COP(O)(=S)O[C@H]3[C@@H](O)[C@H](n4ccc(N)nc4=O)O[C@@H]3COP(O)(=S)O[C@H]3[C@@H](O)[C@H](n4cnc5c(N)ncnc54)O[C@@H]3COP(O)(=S)O[C@H]3[C@@H](O)[C@H](n4cnc5c(=O)[nH]c(N)nc54)O[C@@H]3COP(O)(=S)O[C@H]3[C@@H](O)[C@H](n4ccc(N)nc4=O)O[C@@H]3COP(O)(=S)O[C@H]3[C@@H](O)[C@H](n4cnc5c(=O)[nH]c(N)nc54)O[C@@H]3COP(O)(=S)O[C@H]3C[C@H](n4cc(C)c(=O)[nH]c4=O)O[C@@H]3COP(O)(=S)O[C@H]3[C@@H](O)[C@H](n4cnc5c(=O)[nH]c(N)nc54)O[C@@H]3COP(O)(=S)O[C@H]3[C@@H](O)[C@H](n4ccc(N)nc4=O)O[C@@H]3COP(O)(=S)O[C@H]3[C@@H](O)[C@H](n4cnc5c(=O)[nH]c(N)nc54)O[C@@H]3COP(O)(=S)O[C@H]3[C@@H](O)[C@H](n4ccc(N)nc4=O)O[C@@H]3COP(O)(=S)O[C@H]3[C@@H](O)[C@H](n4ccc(N)nc4=O)O[C@@H]3COP(O)(=S)O[C@H]3[C@@H](O)[C@H](n4cnc5c(N)ncnc54)O[C@@H]3COP(O)(=S)O[C@H]3[C@@H](NCCCNCCCCNCCCNCCCN)[C@H](n4ccc(=O)[nH]c4=O)O[C@@H]3CO)O2)c(=O)[nH]c1=O (stereo partly specified) | 18.5% | 53.6 °C | 71.6 °C
2 | Cc1cn([C@H]2C[C@H](OP(O)(=S)OC[C@H]3O[C@@H](n4ccc(N)nc4=O)[C@H](O)[C@@H]3OP(O)(=S)OC[C@H]3O[C@@H](n4cc(C)c(=O)[nH]c4=O)C[C@@H]3O)[C@@H](COP(O)(=S)O[C@H]3[C@@H](O)[C@H](n4ccc(N)nc4=O)O[C@@H]3COP(O)(=S)O[C@H]3[C@@H](O)[C@H](n4ccc(N)nc4=O)O[C@@H]3COP(O)(=S)O[C@H]3[C@@H](O)[C@H](n4ccc(N)nc4=O)O[C@@H]3COP(O)(=S)O[C@H]3[C@@H](O)[C@H](n4cnc5c(N)ncnc54)O[C@@H]3COP(O)(=S)O[C@H]3[C@@H](O)[C@H](n4cnc5c(=O)[nH]c(N)nc54)O[C@@H]3COP(O)(=S)O[C@H]3[C@@H](O)[C@H](n4ccc(N)nc4=O)O[C@@H]3COP(O)(=S)O[C@H]3[C@@H](O)[C@H](n4cnc5c(=O)[nH]c(N)nc54)O[C@@H]3COP(O)(=S)O[C@H]3C[C@H](n4cc(C)c(=O)[nH]c4=O)O[C@@H]3COP(O)(=S)O[C@H]3[C@@H](O)[C@H](n4cnc5c(=O)[nH]c(N)nc54)O[C@@H]3COP(O)(=S)O[C@H]3[C@@H](O)[C@H](n4ccc(N)nc4=O)O[C@@H]3COP(O)(=S)O[C@H]3[C@@H](O)[C@H](n4cnc5c(=O)[nH]c(N)nc54)O[C@@H]3COP(O)(=S)O[C@H]3[C@@H](O)[C@H](n4ccc(N)nc4=O)O[C@@H]3COP(O)(=S)O[C@H]3[C@@H](O)[C@H](n4ccc(N)nc4=O)O[C@@H]3COP(O)(=S)O[C@H]3[C@@H](O)[C@H](n4cnc5c(N)ncnc54)O[C@@H]3COP(O)(=S)O[C@H]3[C@@H](NCCCCN)[C@H](n4ccc(=O)[nH]c4=O)O[C@@H]3CO)O2)c(=O)[nH]c1=O (stereo partly specified) | 70.6% | 50.1 °C | 67.6 °C
